Values joined by “and” are separate entries in the source; they are usually repeats but may differ in a detail not shown here. Equal values may be shown once.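 Method: 48-hour compound exposure of cells in 96-well plates, five concentrations, linear interpolation of endpoints. GI50: concentration for 50% inhibition of growth. TGI: concentration producing complete growth inhibition.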
Columns and labels:
Experiment in all cases: inhibition of tumour cell growth, NCI panel, 48 h
[1] = system: DMS 114 small cell lung
[2] = system: DMS 273 small cell lung
[3] = system: LXFL 529 NSCLC
[4] = system: M19-MEL melanoma
[5] = system: RXF-631 renal
[6] = system: SNB-78 CNS
[7] = system: HS 578T breast
[8] = system: MCF7 breast
[9] = system: MDA-MB-231 breast
[10] = system: NCI/ADR-RES ovarian

## CC1OC(OCC2OC(Oc3c(-c4ccc(O)cc4)oc4cc(O)cc(O)c4c3=O)C(OC3OC(C)C(O)C(O)C3O)C(O)C2O)C(O)C(O)C1O (centres undefined)
[1]
  TGI: > 77.4 µM
[2]
  TGI: > 100 µM
[3]
  TGI: > 100 µM
[4]
  TGI: > 100 µM
[5]
  TGI: > 100 µM
[6]
  TGI: > 100 µM

## CN(C)c1ccc([O-])cc1.CN(C)c1ccc([O-])cc1.CN(C)c1ccc([O-])cc1.CN(C)c1ccc([O-])cc1.[Ti+4]
[1]
  GI50: 50.7 µM
  TGI: > 100 µM
[2]
  GI50: 34.3 µM
  TGI: > 100 µM
[3]
  GI50: 25.9 µM
  TGI: > 100 µM
[4]
  GI50: > 100 µM
  TGI: > 100 µM
[5]
  GI50: > 100 µM
  TGI: > 100 µM
[6]
  GI50: > 100 µM
  TGI: > 100 µM

## O=C(O)COc1ccc(O)c2c1C(=O)CCCC2=O
[1]
  TGI: > 100 µM
[2]
  TGI: > 100 µM
[3]
  TGI: > 100 µM
[4]
  TGI: > 100 µM
[5]
  TGI: > 100 µM
[6]
  TGI: > 100 µM

## COc1cc(/C=C\c2ccccc2)cc(OC)c1OC
[1]
  TGI: > 28 µM
[2]
  TGI: 11.5 µM
[3]
  TGI: > 68.1 µM
[4]
  TGI: > 100 µM
[5]
  TGI: > 87.1 µM
[6]
  TGI: > 89.8 µM

## C=C(CCCCCCCCC)CC(=O)SCCNC(=O)CCNC(=O)C(O)C(C)(C)COP(=O)(O)OP(=O)(O)OCC1OC(n2cnc3c(N)ncnc32)C(O)C1OP(=O)(O)O (centres undefined)
[1]
  TGI: > 100 µM
[2]
  TGI: 45.2 µM
[7]
  TGI: > 100 µM
[3]
  TGI: > 100 µM
[4]
  TGI: 87.8 µM
[8]
  TGI: > 100 µM
[9]
  TGI: > 100 µM
[10]
  TGI: > 100000 nM
[5]
  TGI: > 100 µM
[6]
  TGI: 65 µM

## COC(=O)C1C(O)CC(c2ccccn2)N(Cc2ccccc2)C1c1ccccn1 (centres undefined)
[1]
  TGI: > 100 µM
[2]
  TGI: > 100 µM
[3]
  TGI: > 100 µM
[4]
  TGI: > 100 µM
[5]
  TGI: > 100 µM
[6]
  TGI: > 100 µM

## Oc1cc(O)c(Oc2cccc(O)c2O)c(O)c1
[1]
  TGI: > 100 µM
[2]
  TGI: > 100 µM
[3]
  TGI: > 100 µM
[4]
  TGI: 45.9 µM
[5]
  TGI: > 100 µM
[6]
  TGI: > 100 µM

## CCOC(=O)C1(Br)C(c2ccccc2)NC(=O)NC1(C)Br (centres undefined)
[1]
  TGI: > 100 µM
[2]
  TGI: > 100 µM
[7]
  GI50: 37.4 µM
  TGI: > 100 µM
[3]
  TGI: > 100 µM
[4]
  TGI: > 100 µM
[8]
  GI50: 28.1 µM
  TGI: > 100 µM
[9]
  GI50: 27.8 µM
  TGI: > 100 µM
[10]
  GI50: 28.1 µM
  TGI: 89800 nM
[5]
  TGI: > 100 µM
[6]
  TGI: > 100 µM

## CC1CC2CC(=O)CC3(C1)C2CCCN3CCCO (centres undefined)
[1]
  TGI: > 100 µM
[2]
  TGI: > 100 µM
[3]
  TGI: > 100 µM
[4]
  TGI: > 100 µM
[5]
  TGI: > 100 µM
[6]
  TGI: > 100 µM

## COC1=CC(=O)C2C(C1=O)[C@@H]1c3ccccc3C[C@H]21 (some centres undefined)
[2]
  TGI: > 100 µM
[4]
  TGI: > 100 µM
[5]
  TGI: > 100 µM
[6]
  TGI: > 100 µM

## OCCCOC(c1ccccc1)(c1ccccc1)c1ccccc1
[1]
  TGI: > 100 µM
[2]
  TGI: > 100 µM
[3]
  TGI: > 100 µM
[4]
  TGI: > 100 µM
[5]
  TGI: > 100 µM
[6]
  TGI: > 100 µM

## COc1ccccc1/C=C1\CCC(CCN(C)C)(C2=CCCC2)C1=O (centres undefined)
[1]
  TGI: 34.2 µM
[2]
  TGI: 32.1 µM
[3]
  TGI: 29.6 µM
[4]
  TGI: 31.7 µM
[5]
  TGI: 29.8 µM
[6]
  TGI: 65.9 µM

## O=C(c1ccc(Cl)cc1)c1ccc(OCCCCCCCCCCOc2ccc(C(=O)c3ccc(Cl)cc3)cc2)cc1
[1]
  TGI: > 100 µM
[2]
  TGI: > 100 µM
[5]
  TGI: > 100 µM
[6]
  TGI: > 100 µM

## Clc1ccc(Cc2nc3ccccc3s2)c(Cl)c1
[1]
  TGI: 36.5 µM
[2]
  TGI: 33.6 µM
[3]
  TGI: 31.1 µM
[4]
  TGI: 30.5 µM
[5]
  TGI: 30.1 µM

## CCCNCCCC(NC(C)=O)C(=O)NCc1ccccc1 (centres undefined)
[1]
  TGI: > 100 µM
[2]
  TGI: > 100 µM
[3]
  TGI: > 100 µM
[4]
  TGI: > 100 µM
[5]
  TGI: > 100 µM
[6]
  TGI: > 100 µM

## CCc1cccc(C(C)C)c1NC(=O)C(=O)CC(=O)c1c(C)n([O-])c2ccccc2[n+]1=O
[1]
  TGI: > 100 µM
[3]
  TGI: > 100 µM
[4]
  TGI: > 100 µM
[5]
  TGI: > 100 µM
[6]
  TGI: > 100 µM

## CC(C)C1(O)C(c2ccccc2)=C(c2ccccc2)C(c2ccccc2)=C1c1ccccc1
[1]
  TGI: 11.8 µM
[2]
  TGI: 37.1 µM
[3]
  TGI: 51.9 µM
[5]
  TGI: 51.3 µM
[6]
  TGI: > 100 µM

## CC[C@@]1(O)C[C@H](OC2CC(N(C)C)C(OC3CC(O)C(OC4CCC(=O)C(C)O4)C(C)O3)C(C)O2)c2c(cc3c(c2O)C(=O)c2c(O)cccc2C3=O)[C@H]1C(=O)OC (some centres undefined)
[1]
  TGI: 0.154 µM and 0.173 µM
[7]
  TGI: 0.135 µM
[3]
  GI50: 0.00422 µM
  TGI: 1.14 µM
[4]
  TGI: 0.144 µM and 0.279 µM
[9]
  TGI: 0.198 µM
[10]
  TGI: 696 nM and 878 nM
[5]
  TGI: 0.0664 µM

## O=c1[nH]c(=O)n([C@@H]2C[C@H](CO)[C@H](O)C2)cc1/C=C/Br
[1]
  TGI: > 100 µM
[2]
  TGI: > 100 µM
[3]
  TGI: > 100 µM
[4]
  TGI: > 100 µM
[5]
  TGI: > 100 µM
[6]
  TGI: > 100 µM

## CC(=O)NNc1nc(C)c(C(=O)NNC(=O)C(=O)Nc2c(C)cccc2C)s1
[2]
  TGI: > 100 µM
[3]
  TGI: > 100 µM
[4]
  TGI: 79.7 µM
[5]
  TGI: > 100 µM
[6]
  TGI: > 100 µM

## O=C(Nc1cccc([N+](=O)[O-])c1)C(=O)C(C(=O)c1ccccc1-c1ccccc1)C1OC(=O)c2ccccc21 (centres undefined)
[1]
  TGI: 33.1 µM
[3]
  TGI: 27.4 µM
[4]
  TGI: 38.1 µM
[5]
  TGI: 61.5 µM
[6]
  TGI: > 100 µM

## Cn1nc(-c2ccccc2)c(C(=O)/C=C/c2ccc(F)cc2)c(N2CCCCC2)c1=O
[1]
  TGI: 17.1 µM
[2]
  TGI: 28.8 µM
[3]
  TGI: 20.7 µM
[4]
  TGI: 35.3 µM
[5]
  TGI: 53.6 µM

## O=C(O)C1C2CCC(O2)C1C(=O)N1CCCCC1 (centres undefined)
[1]
  TGI: 5.06 µM
[2]
  TGI: 23.3 µM
[3]
  TGI: 16.9 µM
[4]
  TGI: 21.9 µM
[5]
  TGI: 51.6 µM
[6]
  TGI: 38.3 µM

## CCCCC1CC(c2cccc([N+](=O)[O-])c2)=NO1 (centres undefined)
[1]
  TGI: > 100 µM
[2]
  TGI: > 100 µM
[3]
  TGI: > 100 µM
[4]
  TGI: > 100 µM
[5]
  TGI: > 100 µM
[6]
  TGI: > 100 µM
